Experimental data published in ChEMBL document CHEMBL5584296, “Discovery of Novel Pyrimidine-Based Derivatives as Nav1.2 Inhibitors with Efficacy in Mouse Models of Epilepsy” (J Med Chem, 2024).
Blank lines part the entries; values can stand above or below the compound they belong to.

Legend:
[1] = Neurotoxicity in male ICR mouse assessed as motor impairment at 5 mg/kg, ip administered for 30 mins by rotarod test relative to control; assay type: toxicity, organism-based; details: in vivo, 0.5 h
Mus musculus [2] = experiment: Antiepileptic activity in 6 Hz(32 mA)-induced seizure male C57BL mouse model assessed as protection against seizure at 5 mg/kg, ip administered for 30 mins by epilepsy test; assay type: functional; details: 0.5 h
[3] = molecular target: Sodium channel protein type 8 subunit alpha (Homo sapiens) (UniProt Q9UQD0); experiment: Inhibition of human Nav1.6 expressed in CHO cells assessed as test to control ratio at 1 uM by whole cell voltage clamp electrophysiological analysis; assay type: cell-based
[4] = molecular target: T1, Sodium channel protein type 2 subunit alpha (Homo sapiens, UniProt Q99250); experiment: Inhibition of human Nav1.2 expressed in HEK293 cells assessed as test to control ratio at 1 uM measured after 5 mins by whole cell voltage clamp electrophysiological analysis; assay type: cell-based
Target sequence in this assay (Q99250 whole entry, looked up): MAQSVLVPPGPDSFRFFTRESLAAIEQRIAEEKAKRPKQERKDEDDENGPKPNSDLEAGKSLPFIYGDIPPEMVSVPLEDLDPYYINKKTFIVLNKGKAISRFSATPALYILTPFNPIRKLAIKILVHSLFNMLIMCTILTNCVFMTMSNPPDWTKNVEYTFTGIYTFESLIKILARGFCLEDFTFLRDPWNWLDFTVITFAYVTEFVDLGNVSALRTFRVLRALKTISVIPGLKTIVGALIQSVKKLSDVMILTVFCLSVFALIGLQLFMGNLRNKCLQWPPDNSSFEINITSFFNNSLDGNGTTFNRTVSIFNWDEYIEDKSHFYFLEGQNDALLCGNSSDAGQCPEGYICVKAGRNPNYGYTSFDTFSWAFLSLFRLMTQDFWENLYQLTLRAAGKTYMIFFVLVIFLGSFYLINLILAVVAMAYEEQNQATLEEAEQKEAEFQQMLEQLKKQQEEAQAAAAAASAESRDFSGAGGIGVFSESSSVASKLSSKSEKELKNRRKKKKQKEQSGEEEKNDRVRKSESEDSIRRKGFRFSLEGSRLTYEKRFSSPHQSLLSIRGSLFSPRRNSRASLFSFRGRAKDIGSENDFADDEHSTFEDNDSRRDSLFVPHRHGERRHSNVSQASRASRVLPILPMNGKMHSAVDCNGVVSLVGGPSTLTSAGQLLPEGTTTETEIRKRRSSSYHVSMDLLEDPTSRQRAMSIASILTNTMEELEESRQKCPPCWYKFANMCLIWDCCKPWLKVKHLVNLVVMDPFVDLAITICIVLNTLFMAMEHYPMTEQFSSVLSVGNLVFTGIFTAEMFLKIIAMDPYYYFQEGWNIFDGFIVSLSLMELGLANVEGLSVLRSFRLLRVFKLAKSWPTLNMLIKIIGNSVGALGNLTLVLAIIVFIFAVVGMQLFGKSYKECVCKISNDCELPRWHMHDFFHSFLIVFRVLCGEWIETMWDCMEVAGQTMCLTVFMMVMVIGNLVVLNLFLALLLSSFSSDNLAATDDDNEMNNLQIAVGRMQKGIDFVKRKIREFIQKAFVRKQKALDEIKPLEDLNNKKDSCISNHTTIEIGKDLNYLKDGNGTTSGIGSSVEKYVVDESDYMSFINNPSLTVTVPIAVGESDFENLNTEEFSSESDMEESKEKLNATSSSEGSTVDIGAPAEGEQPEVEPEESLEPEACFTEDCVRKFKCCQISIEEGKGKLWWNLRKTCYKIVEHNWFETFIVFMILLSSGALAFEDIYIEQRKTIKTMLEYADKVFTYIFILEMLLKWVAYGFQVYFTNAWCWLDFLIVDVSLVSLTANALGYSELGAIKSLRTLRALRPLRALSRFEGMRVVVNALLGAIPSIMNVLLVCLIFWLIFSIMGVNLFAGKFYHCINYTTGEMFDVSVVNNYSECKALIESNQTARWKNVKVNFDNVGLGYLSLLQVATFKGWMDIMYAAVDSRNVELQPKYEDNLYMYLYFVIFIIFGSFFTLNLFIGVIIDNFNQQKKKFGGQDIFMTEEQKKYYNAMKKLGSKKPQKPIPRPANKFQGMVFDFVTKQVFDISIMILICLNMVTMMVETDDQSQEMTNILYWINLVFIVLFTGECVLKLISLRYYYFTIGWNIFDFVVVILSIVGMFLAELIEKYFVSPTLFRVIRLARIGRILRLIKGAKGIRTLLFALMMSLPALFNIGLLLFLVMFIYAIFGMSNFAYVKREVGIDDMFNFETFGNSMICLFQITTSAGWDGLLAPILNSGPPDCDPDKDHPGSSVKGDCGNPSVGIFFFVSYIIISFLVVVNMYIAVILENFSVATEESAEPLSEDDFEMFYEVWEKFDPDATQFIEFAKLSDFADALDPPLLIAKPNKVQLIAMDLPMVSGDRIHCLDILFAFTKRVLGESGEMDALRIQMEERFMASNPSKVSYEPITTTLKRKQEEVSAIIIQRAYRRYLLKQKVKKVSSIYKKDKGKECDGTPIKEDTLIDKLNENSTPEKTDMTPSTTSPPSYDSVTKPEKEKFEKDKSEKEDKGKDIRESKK

Mus musculus [5] = experiment: Antiepileptic activity in MES-induced seizure male ICR mouse model assessed as protection against tonic hind limb extension at 5 mg/kg, ip measured after 30 mins relative to control; assay type: functional; details: 0.5 h
[6] = Neurotoxicity in male ICR mouse assessed as motor impairment at 35 mg/kg, ip administered for 30 mins by rotarod test relative to control; assay type: toxicity, organism-based; details: in vivo, 0.5 h
[7] = molecular target: T1, Sodium channel protein type 2 subunit alpha; experiment: Inhibition of human Nav1.2 expressed in HEK293 cells assessed as test to control ratio at 10 uM measured after 5 mins by whole cell voltage clamp electrophysiological analysis; assay type: cell-based
Target sequence in this assay (Q99250 whole entry, looked up): as above

[8] = molecular target: T2, Sodium channel protein type 5 subunit alpha (Homo sapiens, UniProt Q14524); experiment: Inhibition of human Nav1.5 expressed in CHL cells assessed as test to control ratio at 1 uM by whole cell voltage clamp electrophysiological analysis; assay type: cell-based
Mus musculus [9] = experiment: Antiepileptic activity in MES-induced seizure male ICR mouse model assessed as protection against tonic hind limb extension at 25 mg/kg, ip measured after 30 mins relative to control; assay type: functional; details: 0.5 h
Mus musculus [10] = experiment: Antiepileptic activity in 6 Hz(32 mA)-induced seizure male C57BL mouse model assessed as protection against seizure at 30 mg/kg, ip administered for 30 mins by epilepsy test; assay type: functional; details: 0.5 h
Mus musculus [11] = experiment: Antiepileptic activity in 6 Hz(32 mA)-induced seizure male C57BL mouse model assessed as protection against seizure at 10 mg/kg, ip administered for 30 mins by epilepsy test; assay type: functional; details: 0.5 h
[12] = molecular target: Sodium channel protein type 1 subunit alpha (Homo sapiens) (UniProt P35498); experiment: Inhibition of human Nav1.1 expressed in HEK293 cells assessed as test to control ratio at 1 uM by whole cell voltage clamp electrophysiological analysis; assay type: cell-based
[13] = Neurotoxicity in male ICR mouse assessed as motor impairment at 37 mg/kg, ip administered for 30 mins by rotarod test relative to control; assay type: toxicity, organism-based; details: in vivo, 0.5 h
[14] = molecular target: T1, Sodium channel protein type 2 subunit alpha; experiment: Inhibition of human Nav1.2 expressed in HEK293 cells at -120 mv holding potential measured after 5 mins by whole cell voltage clamp electrophysiological analysis; assay type: cell-based
Target sequence in this assay (Q99250 whole entry): as the sequence (Q99250 whole entry, looked up) above

Mus musculus [15] = experiment: Antiepileptic activity in MES-induced seizure male ICR mouse model assessed as protection against tonic hind limb extension administered intraperitoneally for 30 mins; assay type: functional; details: 0.5 h, route ip
[16] = molecular target: Sodium channel protein type 1 subunit alpha (Homo sapiens) (UniProt P35498); experiment: Inhibition of human Nav1.1 expressed in HEK293 cells assessed as test to control ratio at 0.1 uM by whole cell voltage clamp electrophysiological analysis; assay type: cell-based
[17] = molecular target: T1, Sodium channel protein type 2 subunit alpha; experiment: Inhibition of human Nav1.2 expressed in HEK293 cells at -40 mv holding potential measured after 5 mins by whole cell voltage clamp electrophysiological analysis; assay type: cell-based
Target sequence in this assay (Q99250 whole entry): as the sequence (Q99250 whole entry, looked up) above

Mus musculus [18] = experiment: Antiepileptic activity in MES-induced seizure male ICR mouse model assessed as protection against tonic hind limb extension at 15 mg/kg, ip measured after 30 mins relative to control; assay type: functional; details: 0.5 h
[19] = molecular target: T1, Sodium channel protein type 2 subunit alpha; experiment: Inhibition of human Nav1.2 expressed in HEK293 cells assessed as effect on steady state activation by measuring half activation potential at 0.2 uM (reference value: -36 mV); assay type: cell-based
Target sequence in this assay (Q99250 whole entry, looked up): as above

[20] = molecular target: T2, Sodium channel protein type 5 subunit alpha; experiment: Inhibition of human Nav1.5 expressed in CHL cells assessed as test to control ratio at 0.1 uM by whole cell voltage clamp electrophysiological analysis; assay type: cell-based
[21] = molecular target: Sodium channel protein type 8 subunit alpha (Homo sapiens) (UniProt Q9UQD0); experiment: Inhibition of human Nav1.6 expressed in CHO cells assessed as test to control ratio at 0.1 uM by whole cell voltage clamp electrophysiological analysis; assay type: cell-based
[22] = Neurotoxicity in male ICR mouse assessed as motor impairment at 30 mg/kg, ip administered for 30 mins by rotarod test relative to control; assay type: toxicity, organism-based; details: in vivo, 0.5 h
[23] = molecular target: T1, Sodium channel protein type 2 subunit alpha; experiment: Inhibition of human Nav1.2 expressed in HEK293 cells assessed as effect on steady state inactivation by measuring half activation potential at 0.2 uM (reference value: -54 mV); assay type: cell-based
Target sequence in this assay (Q99250 whole entry, looked up): as above

[24] = Neurotoxicity in male ICR mouse assessed as motor impairment at 40 mg/kg, ip administered for 30 mins by rotarod test relative to control; assay type: toxicity, organism-based; details: in vivo, 0.5 h
[25] = Neurotoxicity in male ICR mouse administered intraperitoneally for 30 mins; assay type: toxicity; details: in vivo, route ip
[26] = molecular target: T1, Sodium channel protein type 2 subunit alpha; experiment: Inhibition of human Nav1.2 expressed in HEK293 cells assessed as test to control ratio at 0.1 uM measured after 5 mins by whole cell voltage clamp electrophysiological analysis; assay type: cell-based
Target sequence in this assay (Q99250 whole entry, looked up): as above

Mus musculus [27] = experiment: Antiepileptic activity in 6 Hz(32 mA)-induced seizure male C57BL mouse model administered intraperitoneally for 30 mins by epilepsy test; assay type: functional; details: 0.5 h, route ip

Sequence of Sodium channel protein type 8 subunit alpha (Homo sapiens) (Q9UQD0 whole entry, looked up): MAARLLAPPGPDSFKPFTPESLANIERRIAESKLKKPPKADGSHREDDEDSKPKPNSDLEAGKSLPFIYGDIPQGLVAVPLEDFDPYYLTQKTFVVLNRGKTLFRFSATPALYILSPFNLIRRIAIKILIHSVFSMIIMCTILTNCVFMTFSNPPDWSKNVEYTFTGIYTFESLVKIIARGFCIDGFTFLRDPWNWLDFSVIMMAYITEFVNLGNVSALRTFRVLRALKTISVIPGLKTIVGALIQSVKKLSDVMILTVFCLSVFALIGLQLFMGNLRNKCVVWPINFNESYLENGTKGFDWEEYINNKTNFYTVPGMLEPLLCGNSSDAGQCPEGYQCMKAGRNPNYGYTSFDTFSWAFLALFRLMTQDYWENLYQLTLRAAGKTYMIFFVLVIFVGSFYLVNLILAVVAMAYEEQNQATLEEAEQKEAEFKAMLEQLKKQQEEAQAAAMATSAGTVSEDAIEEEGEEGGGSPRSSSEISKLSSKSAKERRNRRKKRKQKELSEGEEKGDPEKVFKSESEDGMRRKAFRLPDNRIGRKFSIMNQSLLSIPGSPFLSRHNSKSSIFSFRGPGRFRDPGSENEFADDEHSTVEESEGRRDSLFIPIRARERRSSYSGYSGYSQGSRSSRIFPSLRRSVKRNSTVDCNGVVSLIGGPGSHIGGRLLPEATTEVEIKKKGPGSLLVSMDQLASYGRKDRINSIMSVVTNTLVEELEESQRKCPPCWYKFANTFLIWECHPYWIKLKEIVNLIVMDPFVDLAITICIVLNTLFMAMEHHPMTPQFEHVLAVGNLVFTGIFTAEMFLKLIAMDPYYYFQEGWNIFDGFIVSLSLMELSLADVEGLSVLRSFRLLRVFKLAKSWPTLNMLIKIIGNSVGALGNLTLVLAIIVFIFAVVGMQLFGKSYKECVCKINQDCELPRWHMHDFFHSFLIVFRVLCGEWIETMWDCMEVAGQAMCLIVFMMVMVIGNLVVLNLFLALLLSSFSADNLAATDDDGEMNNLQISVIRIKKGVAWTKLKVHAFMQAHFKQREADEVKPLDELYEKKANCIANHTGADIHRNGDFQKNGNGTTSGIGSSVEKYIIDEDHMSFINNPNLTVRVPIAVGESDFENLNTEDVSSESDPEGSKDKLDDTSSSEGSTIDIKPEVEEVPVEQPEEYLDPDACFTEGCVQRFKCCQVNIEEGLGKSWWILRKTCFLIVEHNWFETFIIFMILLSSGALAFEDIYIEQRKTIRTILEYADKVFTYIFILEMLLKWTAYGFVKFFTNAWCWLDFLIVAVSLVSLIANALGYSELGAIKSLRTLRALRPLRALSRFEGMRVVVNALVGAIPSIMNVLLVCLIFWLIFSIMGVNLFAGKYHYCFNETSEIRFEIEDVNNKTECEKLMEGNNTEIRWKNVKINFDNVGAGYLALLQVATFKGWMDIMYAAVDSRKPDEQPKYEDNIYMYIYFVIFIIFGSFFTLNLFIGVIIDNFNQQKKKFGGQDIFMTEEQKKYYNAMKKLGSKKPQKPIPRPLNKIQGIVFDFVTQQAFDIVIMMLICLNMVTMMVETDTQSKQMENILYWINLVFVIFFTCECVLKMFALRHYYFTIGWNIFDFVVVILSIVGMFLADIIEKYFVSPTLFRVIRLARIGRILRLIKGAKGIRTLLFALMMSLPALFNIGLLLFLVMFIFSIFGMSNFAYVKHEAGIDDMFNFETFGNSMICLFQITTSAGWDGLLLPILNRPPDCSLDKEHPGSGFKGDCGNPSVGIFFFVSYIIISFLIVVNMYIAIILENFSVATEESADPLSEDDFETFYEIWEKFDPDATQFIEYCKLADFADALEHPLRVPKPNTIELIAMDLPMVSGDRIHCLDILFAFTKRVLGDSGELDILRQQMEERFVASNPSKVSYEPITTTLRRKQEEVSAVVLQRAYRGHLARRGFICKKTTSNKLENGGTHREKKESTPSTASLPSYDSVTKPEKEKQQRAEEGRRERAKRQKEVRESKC

SMILES: CN(C)CCCN1c2ccccc2Sc2ccc(Cl)cc21 [CHLORPROMAZINE]
- Activity [1]: 88%

- T/C [3]: 0.09
- T/C [4]: 0.04
- T/C [7]: 0
- T/C [12]: 0.02
- IC50 [14]: 0.158 µM
- T/C [16]: 0.18
- IC50 [17]: 0.065 µM
- V1/2 [19]: -30 mV
- T/C [21]: 0.42
- V1/2 [23]: -56 mV
- T/C [26]: 0.39
SMILES: COc1cccc(-c2cc(N3CCCc4ccc(C)cc4C3)nc(N)n2)c1
- Activity (Mus musculus [2]): 13%
- Activity (Mus musculus [5]): 25%
- Activity [6]: 63%
- T/C [8]: 0.07
- Activity (Mus musculus [9]): 88%
- Activity (Mus musculus [10]): 63%
- Activity (Mus musculus [11]): 38%
- Activity [13]: 88%
- ED50 (Mus musculus [15]): 11.1 mg/kg
- Activity (Mus musculus [18]): 44%
- T/C [20]: 0.18
- Activity [22]: 38%
- Activity [24]: 100%
- TD50 at 0.5 h [25]: 31.9 mg/kg
- ED50 (Mus musculus [27]): 18.5 mg/kg
